Laboratory results published in patent US20040029847A1 (priority 2003, published 2004).

Experiments:
[1] = test system: estrogen receptor preparations from rat prostates; test: Competitive binding with 3H-estradiol to estrogen receptor from rat prostate cytosol
hERβ [2] = test: Relative binding affinity (RBA) to hERβ, cited from Kuiper et al.; set-up: species or system human; details: quotient of RBA to hERβ and hERα
From the text: In this case, it is assumed that ERβ predominates in the rat prostates over ERα, and ERα predominates in rat uteri over ERβ.

hERβ [3] = details: relative binding affinity, estradiol = 100; cited from earlier work

Row | Compound | Rat prost. ER(RBA) ([1]; rat prostate cytosol, 3H-estradiol as ligand, estradiol = 100) | prost. ER/uterus ER ([1]; ratio of RBA at rat prostate ER to rat uterus ER) | ERβ/ERα (hERβ [2]) | hERβ RBA* (hERβ [3])
1 | Estradiol | 100 | 1 | 1 | 100
2 | C[C@]12CC[C@@H]3c4ccc(O)cc4CC[C@H]3[C@@H]1C[C@@H](O)[C@@H]2O [Estriol] |  |  |  | 21
